Experimental data as given in patent US7098241B2, “Thiophene hydroxamic acid derivatives” (Hoffmann-La Roche Inc., priority 2002, dated 2006).

Columns and labels:
[1] = tested on: HT-29 cells (human colon carcinoma cell line); test: MTT anti-proliferation assay on HT-29 cells; format: cell-based; conditions: Homo sapiens, 120 h, 384 well plates, 5 days, read-out: IC50 HT29 384
From the text: MTT (3-(4,5-dimethylthiazol-2-yl)-2,5-diphenyl tetrazolium bromide) is widely used for the quantitative determination of cytotoxic effects or in vitro chemosensitivity of tumor cells. The assay is based on the cleavage of the yellow tetrazolium salt (MTT) to purple formazan crystals by metabolic active cells. For details, see Rubinstein, L. V., et al., J. Natl. Cancer Inst. 82 (1990) 1113.
We proceeded as follows: HT-29 cells (human colon carcinoma cell line) were cultivated in RPMI 1640, 2.5% FCS, 2 mM glutamine, 100 u/ml penicillin, 100 ug/ml streptomycin. For the assay the cells were seeded in 384 well plates, 900 cells per well, in the same medium. At the next day, the compounds (dissolved 10 mM in DMSO) were added in various concentrations ranging from 30 uM to 1.5 nM. After 5 days, the MTT assay was done mainly according to the instructions of the manufacturer (Cell proliferation kit I, MTT, from Roche Molecular Biochemicals). In brief: MTT labeling reagent was added to a final concentration of 0.5 mg/ml, added and incubated for 4 hrs at 37° C., 5% CO2. During this incubation time purple formazan crystals are formed. After addition of the solubilization solution (20% SDS in 0.02 M HCl) the plates were incubated overnight at 37° C., 5% CO2. After careful mixing, the plates were measured in Victor 2 (scanning multiwell spectrophotometer, Wallac) at 550 nm.
A decrease in number of living cells results in a decrease in the total metabolic activity in the sample. The decrease directly correlates to the amount of purple color resulting from the solubilization of the purple formazan crystals. Determination of IC50 was done using XL-fit.

[2] = tested on: acetylated histone H3 in HT29 human colon carcinoma xenografts; test: Acetylation levels of histone H3 in HT29 tumor bearing mice; format: in vivo, NMRI nude mice; conditions: for acetylated H3, BLU/1 μg histone protein: HT29 xenograft, mean; for acetylated H3, BLU % (BLU percent versus vehicle control): vehicle = 100
Protocol: Determination of Acetylation Levels of Histone H3 in Tumor Bearing Mice
The HT-29 cell line is derived from a human colon adenocarcinoma and was obtained from ATCC and kept in an in house working cell bank for pharmacological use. Cells were cultured in RPMI1640/2 mM L-Glutamin medium supplemented with 10% heat inactivated FCS. For inoculation HT29 tumor cells are removed (Trypsin-EDTA, 50 U/mg) from culture flasks and transferred into culture medium (RPMI 1640, 10% heat inactivated FCS), washed and resuspended in sterile PBS to achieve a final cell concentration of 5×10^6/100 μl. Cell suspension was carefully mixed by regular shaking to avoid cell aggregation and filled into a 1.0 ml graded syringe. After s.c. inoculation of HT29 human colon carcinoma cells (5×10^6/100 μl) in the right upper quarter of ventral breast region of NMRI nude mice, animals were inspected 2–3 times per week until xenografts reached a volume of roughly 1000 mm^3 or more, sufficient for analysis of histone acetylation. After single i.p. application of 400 mg/kg of the compound of example 1, formulated as microsuspension in 7.5% modified gelatin with 0.22% NaCl solution, the respective group of animals was sacrificed 3, 6, 12, and 24 h after dosing. Tumors were excised for analysis of acetylated histones (H3). An aliquot of tumors (ca. 200 mg) was analyzed for acetylated H3. Histones were extracted from xenografts by standardized methods (Richon, V. M., et al., PNAS 97 (2000) 10014–10019; Yoshida, M., et al., J. Biol. Chem. 265 (1990) 17174–17179), separated and acetylated H3 identified by Slot Blot and Immuno Blot techniques (SB-IB, Bio-Rad Laboratories GmbH, Munich, Germany) using anti-acetyled-H3 Pabs (UpState Biotechnology, Cat. #06-599). Histone protein was determined (Pierce Kit) and adjusted to 3 mg/ml to apply a standardized amount of 1 μg histone protein for H3 analysis in SB-IB. Quantification of acetylated H3 was performed by ECL (Enhanced Chemo Luminescence, Amersham Pharmacia, Hybond™ ECL™ Nitrocellulose membrane) measuring bioluminescence with the Lumi-Imager instrument (Roche Diagnostics). Data are expressed either as BLU/μg histone protein (BLU=Bio-Luminescence-Units), or as BLU percent versus vehicle control. After single administration of the compound of example 1, there was a marked and significant increase of acetylated H3 lasting for up to 24 h compared to the vehicle groups. The maximum acetylation was attained 6 h after dosing. A tabulated summary of the mean values and percentual changes are depicted below.

[3] = 3 h after single i.p. 400 mg/kg
[4] = 6 h after single i.p. 400 mg/kg
[5] = 12 h after single i.p. 400 mg/kg
[6] = 24 h after single i.p. 400 mg/kg

C[C@@H](NC(=O)c1ccc(C(=O)NO)s1)c1ccccc1 [Example 1, (R)-thiophene-2,5-dicarboxylic acid 2-hydroxyamide 5-[(1-phenyl-ethyl)-amide]]
IC50 [1]: 170 nM | acetylated H3, BLU/1 μg histone protein [2, 3]: 57824 BLU/1 μg | acetylated H3, BLU % (BLU percent versus vehicle control) [2, 3]: 466% | acetylated H3, BLU/1 μg histone protein [2, 4]: 98717 BLU/1 μg | acetylated H3, BLU % (BLU percent versus vehicle control) [2, 4]: 502% | acetylated H3, BLU/1 μg histone protein [2, 5]: 75378 BLU/1 μg | acetylated H3, BLU % (BLU percent versus vehicle control) [2, 5]: 447% | acetylated H3, BLU/1 μg histone protein [2, 6]: 40965 BLU/1 μg | acetylated H3, BLU % (BLU percent versus vehicle control) [2, 6]: 269% | duration of marked and significant increase of acetylated H3 compared to vehicle ([2]; single i.p. 400 mg/kg): up to 24 h | time of maximum acetylation after dosing ([2]; single i.p. 400 mg/kg): 6 h
